{"source": "patent US20260166045A1", "about": "“COMBINATION THERAPY COMPRISING GSPT1-DIRECTED MOLECULAR GLUE DEGRADERS AND PI3K/AKT/mTOR PATHWAY INHIBITORS” (Monte Rosa Therapeutics, Inc., priority 2022, published 2026)", "key": {"MCF7 xenografts": {"test_system": "MCF7 xenografts", "assay": "MCF7 cell-derived xenograft (CDX) in vivo combination study", "set-up": "species or system BALB/c nude mice", "settings": "compound 1-1 10 mg/kg; for Δ TV ratio to vehicle group (A/C, B/C, (AB)/C): day 28, Clarke method; for Δ TV (delta tumor volume): p.o. qd for 28 days, average of four tumors", "experimental": "[…] (0.36 mg) pellets (Innovative Research of America Cat. No.: SE-121, pellet size: 3.0 mm) were implanted 2-3 days before cell inoculation.\n(§1) Compound 1-1 was formulated every day freshly as a solution in 5% DMSO/95% (30% w/v HPβCD in water). This formulation was also used as vehicle control. Everolimus was formulated as a suspension in 1% MC (400 cps), which was prepared every 3 days.\n(§2) Body weights were measured at the same time.\nAn approximation of drug interactions was made using the method described by Clarke (Clarke et al. 1997. Breast Cancer Res Treat. 46(2-3):255-78). This was applied to […] and can estimate interactions from limited data. In short, for compound A, B, or the combination AB (with control group C), antagonism is predicted when (AB)/C>(A/C)×(B/C), an additive effect is predicted when (AB)/C=(A/C)×(B/C), and synergistic interaction is predicted to occur when (AB)/C<(A/C)×(B/C). Calculations in Table 10B indicate that the interaction of everolimus and compound 1-1 in the MCF7 CDX model is synergistic.\n17β-Estradiol (0.36 mg) pellets (Innovative Research of America Cat. No.: SE-121, pellet size: 3.0 mm) were implanted 2-3 days before cell inoculation.\n(§3) Compound 1-1 was formulated every day freshly as a solution in 5% DMSO/95% (30% w/v HPβCD in water). This formulation was also used as vehicle control. Alpelisib was formulated as a solution in 20% captisol+80% water (pH adjusted to 4), which was prepared every week."}, "CAL51 xenografts": {"test_system": "CAL51 xenografts", "assay": "CAL51 cell-derived xenograft (CDX) in vivo combination study", "set-up": "species or system SCID Beige mice", "settings": "compound 1-1 3 mg/kg; for antitumor effect vs vehicle (tumor volume): day 21, ANOVA with post hoc Tukey's test; for antitumor effect vs vehicle (tumor volume) / Δ TV ratio to vehicle group (A/C, B/C, (AB)/C): p.o. qd; for Δ TV ratio to vehicle group (A/C, B/C, (AB)/C): day 21, Clarke method; for Δ TV (delta tumor volume): p.o. qd for 21 days, average of four tumors", "experimental": "as §1, §2, §3"}}}
{"compound": "O=C1CCC(N2Cc3ccc(COC(=O)Nc4cc(OC(F)(F)F)ccc4F)cc3C2=O)C(=O)N1", "note": "(stereo not drawn) [Compound 1-1, [2-(2,6-dioxopiperidin-3-yl)-3-oxo-2,3-dihydro-1H-isoindol-5-yl]methyl N-[2-fluoro-5-(trifluoromethoxy)phenyl]carbamate]", "values": [{"measurement": "anti-tumor effect compared to vehicle", "setting": "MCF7 xenografts; day 28, ANOVA with post hoc Tukey's test, alpelisib 50 mg/kg, p.o. qd", "result": "significant anti-tumor effect"}, {"measurement": "antitumor effect vs vehicle (tumor volume)", "setting": "MCF7 xenografts; day 28, ANOVA with post hoc Tukey's test, everolimus 2 mg/kg, p.o. qd", "result": "statistically significant antitumor effects"}, {"measurement": "Δ TV ratio to vehicle group (A/C, B/C, (AB)/C)", "setting": "MCF7 xenografts; alpelisib 50 mg/kg, p.o. qd", "result": 0.35}, {"measurement": "Δ TV ratio to vehicle group (A/C, B/C, (AB)/C)", "setting": "MCF7 xenografts; everolimus 2 mg/kg, p.o. qd", "result": 0.35}, {"measurement": "Δ TV (delta tumor volume)", "setting": "MCF7 xenografts; day 28, alpelisib 50 mg/kg, combination 50 + 10 mg/kg", "result": 216, "unit": "mm^3"}, {"measurement": "Δ TV (delta tumor volume)", "setting": "MCF7 xenografts; day 28, everolimus 2 mg/kg, combination 2 + 10 mg/kg", "result": 216, "unit": "mm3"}, {"measurement": "antitumor effect vs vehicle (tumor volume)", "setting": "CAL51 xenografts; alpelisib 20 mg/kg", "result": "neither alpelisib nor compound 1-1 produced a statistically significant antitumor effect"}, {"measurement": "antitumor effect vs vehicle (tumor volume)", "setting": "CAL51 xenografts; everolimus 2 mg/kg", "result": "statistically significant antitumor effect"}, {"measurement": "Δ TV ratio to vehicle group (A/C, B/C, (AB)/C)", "setting": "CAL51 xenografts; alpelisib 20 mg/kg", "result": 0.38}, {"measurement": "Δ TV ratio to vehicle group (A/C, B/C, (AB)/C)", "setting": "CAL51 xenografts; everolimus 2 mg/kg", "result": 0.38}, {"measurement": "Δ TV (delta tumor volume)", "setting": "CAL51 xenografts; day 21, alpelisib 20 mg/kg, combination 20 + 3 mg/kg", "result": 215, "unit": "mm3"}, {"measurement": "Δ TV (delta tumor volume)", "setting": "CAL51 xenografts; day 21, everolimus 2 mg/kg, combination 2 + 3 mg/kg", "result": 215, "unit": "mm3"}]}
